Measured values as given in patent publication US20250042894A1, “PROTEIN TYROSINE PHOSPHATASE INHIBITORS AND METHODS OF USE THEREOF” (Calico Life Sciences LLC, priority 2021, published 2025).
Like-named read-outs stand apart in the source and are kept apart here.

How the values were obtained:
[1] = molecular target: T1, His tagged PTPN2 (TC45) protein (Homo sapiens, UniProt P17706); assay: Mobility Shift Assay (MSA) for PTPN2 inhibitors; assay type: biochemical; settings: for IC50: enzyme 0.5 nM, substrate 2 μM, 10 minutes preincubation at room temperature; for Thiochromane x-fold>potency biochemical: Table 3, PTPN2 MSA IC50 of chromane comparator over thiochromane
T1 construct: His; made in house
T1 sequence (P17706 1-387 isoform P17706-2): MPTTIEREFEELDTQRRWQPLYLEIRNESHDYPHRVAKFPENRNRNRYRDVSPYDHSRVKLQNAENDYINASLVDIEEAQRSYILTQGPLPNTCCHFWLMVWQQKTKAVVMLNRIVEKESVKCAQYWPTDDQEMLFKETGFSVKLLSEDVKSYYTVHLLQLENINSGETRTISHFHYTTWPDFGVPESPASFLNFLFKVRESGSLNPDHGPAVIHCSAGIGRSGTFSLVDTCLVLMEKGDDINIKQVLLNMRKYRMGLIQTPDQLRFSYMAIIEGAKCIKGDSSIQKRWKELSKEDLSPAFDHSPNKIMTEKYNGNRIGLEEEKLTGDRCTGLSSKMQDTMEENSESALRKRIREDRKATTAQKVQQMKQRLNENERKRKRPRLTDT
Method: Example 43: Mobility Shift Assay (MSA) Used to Determine Potency of PTPN2 Inhibitors
Compound activity was determined using in house His tagged PTPN2 (TC45) protein (SEQ ID NO: 1) in an in vitro enzymatic reaction. The enzymatic assay used to determine activity was a mobility shift assay using a LabChip EZ Reader by Caliper Life Sciences. The enzymatic reaction was carried out in assay buffer (50 mM HEPES pH 7.5, 1 mM EGTA, 10 mM EDTA, 0.01% Tween® 20, and 2 mM DTT). The compounds were dispensed on a white 384 well ProxiPlate™ (PerkinElmer Catalog #6008289) plate using the Labcyte Echo at varying concentrations (12 point, 1:3 dilution). The enzyme (at 0.5 nM) was incubated with compound for 10 minutes at room temperature. Thereafter, the substrate (phosphorylated insulin receptor probe sequence: ((OG488)-(NH—CH2—CH2—O—CH2—CH2—O—CH2—CO)-T-R-D-I—(PY)-E-T-D-Y—Y—R—K—K—NH2) (SEQ ID NO: 2) was added at 2 μM to the plates and incubated for another 10 minutes at room temperature. Finally, a quench solution (water and 4-bromo-3-(2-oxo-2-propoxyethoxy)-5-(3-{[1-(phenylmethanesulfonyl)piperidin-4-yl]amino}phenyl)thiophene-2-carboxylic acid) was added to the plates, which were then run on the EZ Reader (excitation 488 nm, emission 530 nm) to measure % conversion (the amount of phosphorylated substrate which was de-phosphorylated by PTPN2). […] The % inhibition was then used to calculate the IC50 values.

[2] = tested on: IFNγ-induced STAT1 phosphorylation (pSTAT1) in B16F10 cells; assay: B16F10 Phospho-STAT1 HTRF proximal pharmacodynamic (PD) assay; assay type: cell-based, murine; settings: for EC50: B16-F10; for Thiochromane x-fold>potency cellular: pSTAT1 EC50 of chromane comparator over thiochromane
Method: Example 45: B16F10 (Murine Melanoma Cells) Phospho-STAT1 HTRF Proximal Pharmacodynamic (PD) Assay
B16F10 cells were grown and maintained in high glucose DMEM (Gibco, Catalog #11965-092, Dun Laoghaire Co Dublin) supplemented with 10% fetal bovine serum (Gibco, Catalog #10082-139, Dun Laoghaire Co Dublin). The cells were pelleted and resuspended in high glucose DMEM without phenol red (Gibco, Catalog #11054-020, Dun Laoghaire Co Dublin), supplemented with 10% fetal bovine serum and plated in a 384 well Corning plate (product #3765, Corning, NY) at 11,000 cells per well in a volume of 20 μL. The cells were dosed with the compounds of interest using an Echo Liquid Handler (Beckman Coulter, Brea, CA) at 50 μM top dose with 3-fold dilutions down to 0.002679 μM for a 10-point dose response. The plate was incubated for 3 hours at 37° C. and subsequently treated with recombinant mouse IFNγ (R&D Systems, Catalog #485-MI, Minneapolis, MN; 100 nM final concentration) for 10 minutes at 37° C. to induce STAT1 phosphorylation followed by 3.3 μM staurosporine treatment for 1 hour at 37° C. to terminate phosphorylation. Media was then aspirated and 20 μL of 1× lysis buffer/blocking reagent (Cisbio Phospho-STAT1 kit, part #63ADK026PEH, Bedford, MA) was added. The plate was placed on a plate shaker for 30 minutes at room temperature, sealed, and stored at −80° C. until needed. To thaw, the plate was placed on shaker at room temperature until completely thawed while the antibody master mix was made (1:40 Phospho-STAT1 Eu Cryptate antibody, 1:40 Phospho-STAT1 d2 antibody, with the detection buffer; Cisbio Phospho-STAT1 kit, part #63ADK026PEH, Bedford, MA). The antibody master mix was then dispensed at 4 μL per well into a 384 ProxiPlate Plus (PerkinElmer, part #6008289, Waltham, MA) and 16 μL of lysate was added from the Corning plate to the Proxiplate using a VIAFLO 384 (INTEGRA). The plate was incubated for 3 hours at room temperature and read on an EnVision® (Perkin Elmer) plate reader with laser excitation at 335 nm and emission at 665 nm. Dotmatics Studies (Bishop's Stortford, UK) was utilized to generate all dose-response curves and calculate EC50s and are shown in Table 2.

[3] = molecular target: T2, His tagged full-length PTPN1 protein (Homo sapiens, UniProt P18031); assay: Mobility Shift Assay (MSA) for PTPN1 inhibitors; assay type: biochemical; settings: enzyme 0.5 nM, substrate 2 μM, 10 minutes preincubation at room temperature
T2 construct: His; made in house
T2 sequence (P18031 1-435): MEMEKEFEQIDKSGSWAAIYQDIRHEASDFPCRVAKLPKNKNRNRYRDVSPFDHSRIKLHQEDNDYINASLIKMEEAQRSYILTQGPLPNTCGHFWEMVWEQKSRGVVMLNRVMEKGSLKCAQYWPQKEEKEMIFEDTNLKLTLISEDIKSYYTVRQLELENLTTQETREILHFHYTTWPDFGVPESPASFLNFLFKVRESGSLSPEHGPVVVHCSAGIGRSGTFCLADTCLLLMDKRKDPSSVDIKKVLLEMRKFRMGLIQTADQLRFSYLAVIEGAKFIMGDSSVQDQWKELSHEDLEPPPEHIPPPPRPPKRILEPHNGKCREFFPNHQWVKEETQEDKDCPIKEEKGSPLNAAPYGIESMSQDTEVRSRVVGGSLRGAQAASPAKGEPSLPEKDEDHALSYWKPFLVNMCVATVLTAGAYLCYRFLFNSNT
Method: Example 44: Mobility Shift Assay (MSA) Used to Determine Potency of PTPN1 Inhibitors
Compound activity was determined using in house His tagged full-length PTPN1 protein (SEQ ID NO: 3) in an in vitro enzymatic reaction. The enzymatic assay used to determine activity is a mobility shift assay using a LabChip EZ Reader by Caliper Life Sciences. The enzymatic reaction was carried out in assay buffer (50 mM HEPES pH 7.5, 1 mM EGTA, 10 mM EDTA, 0.010% Tween® 20, and 2 mM DTT). The compounds were dispensed on a white 384 well ProxiPlate™ (PerkinElmer Cat #6008289) plate using a Labcyte Echo® liquid handler at varying concentrations (12 point, 1:3 dilution). The enzyme (at 0.5 nM) was incubated with compound for 10 minutes at room temperature. Thereafter, the substrate (phosphorylated insulin receptor probe sequence: ((OG488)-(NH—CH2—CH2—O—CH2—CH2—O—CH2—CO)-T-R-D-I—(PY)-E-T-D-Y—Y—R—K—K—NH2) (SEQ ID NO: 2) was added at 2 μM to the plates and incubated for another 10 minutes at room temperature. Finally, a quench solution (water and 4-bromo-3-(2-oxo-2-propoxyethoxy)-5-(3-{[1-(phenylmethanesulfonyl)piperidin-4-yl]amino}phenyl)thiophene-2-carboxylic acid) was added to the plates, which were then run on the EZ Reader (excitation 488 nm, emission 530 nm) to measure % conversion (the amount of phosphorylated substrate which was de-phosphorylated by PTPN1). […] The % inhibition was then used to calculate the IC50 values.

[4] = Table 2, 3 hours compound, then mouse IFNγ 100 nM 10 minutes, top dose 50 μM, read-out: B16F10 IFNγ Induced pSTAT1 EC50
[5] = Mus musculus, Table 3, B16F10 cells, IFNγ-induced, thiochromanes (X = S) and chromane comparators (X = O), read-out: pSTAT1 EC50

SMILES	IC50 [1] [nM]	EC50 [2, 4] [nM]	IC50 [3] [nM]	Thiochromane x-fold>potency biochemical [1]	EC50 [2, 5] [nM]	Thiochromane x-fold>potency cellular ([2]; Table 3)
CC(C)CN[C@@H]1CSc2cc(O)c(N3CC(=O)NS3(=O)=O)c(F)c2C1 [Compound 113, 5-{(3S)-5-fluoro-7-hydroxy-3-[(2-methylpropyl)amino]-3,4-dihydro-2H-1-benzothiopyran-6-yl}-1λ^6,2,5-thiadiazolidine-1,1,3-trione]	10 to 100	2030	10 to 100			
O=C1CN(c2c(O)cc3c(c2F)C[C@H](NCc2ccccc2)CS3)S(=O)(=O)N1 [Compound 121, 5-[(3S)-3-(benzylamino)-5-fluoro-7-hydroxy-3,4-dihydro-2H-1-benzothiopyran-6-yl]-1λ^6,2,5-thiadiazolidine-1,1,3-trione]	10 to 100	8150	10 to 100			
CC(CN[C@@H]1CSc2cc(O)c(N3CC(=O)NS3(=O)=O)c(F)c2C1)C1CC1 (stereo partly drawn) [Compound 133, 5-{(3S)-3-[(2-cyclopropylpropyl)amino]-5-fluoro-7-hydroxy-3,4-dihydro-2H-1-benzothiopyran-6-yl}-1λ^6,2,5-thiadiazolidine-1,1,3-trione]	< 10	762	< 10			
O=C1CN(c2c(O)cc3c(c2F)C[C@H](NCCC2CCOC2)CS3)S(=O)(=O)N1 (stereo partly drawn) [Compound 114, 5-[(3S)-5-fluoro-7-hydroxy-3-{[2-(oxolan-3-yl)ethyl]amino}-3,4-dihydro-2H-1-benzothiopyran-6-yl]-1λ^6,2,5-thiadiazolidine-1,1,3-trione]	< 10	1780	10 to 100	6.0	1780	12.7
CC(C)=CCN[C@@H]1CSc2cc(O)c(N3CC(=O)NS3(=O)=O)c(F)c2C1 [Compound 122, 5-{(3S)-5-fluoro-7-hydroxy-3-[(3-methylbut-2-en-1-yl)amino]-3,4-dihydro-2H-1-benzothiopyran-6-yl}-1λ^6,2,5-thiadiazolidine-1,1,3-trione]	10 to 100	6390	10 to 100			
CC1=C(CCN[C@@H]2CSc3cc(O)c(N4CC(=O)NS4(=O)=O)c(F)c3C2)C(C)(C)CCC1 [Compound 140, 5-[(3S)-5-fluoro-7-hydroxy-3-{[2-(2,6,6-trimethylcyclohex-1-en-1-yl)ethyl]amino}-3,4-dihydro-2H-1-benzothiopyran-6-yl]-1λ^6,2,5-thiadiazolidine-1,1,3-trione]	10 to 100	2950	10 to 100	1.5	2950	>16.9
O=C1CN(c2c(O)cc3c(c2F)C[C@H](NCC2C4CCCC42)CS3)S(=O)(=O)N1 (mixture of isomers) [Compound 138, 5-[(3S)-3-({[(1RS,5SR)-bicyclo[3.1.0]hexan-6-yl]methyl}amino)-5-fluoro-7-hydroxy-3,4-dihydro-2H-1-benzothiopyran-6-yl]-1λ^6,2,5-thiadiazolidine-1,1,3-trione]	10 to 100	1480	10 to 100	2.0	1480	>33.8
CC1(CN[C@@H]2CSc3cc(O)c(N4CC(=O)NS4(=O)=O)c(F)c3C2)COC1 [Compound 127, 5-[(3S)-5-fluoro-7-hydroxy-3-{[(3-methyloxetan-3-yl)methyl]amino}-3,4-dihydro-2H-1-benzothiopyran-6-yl]-1λ^6,2,5-thiadiazolidine-1,1,3-trione]	10 to 100	8970	10 to 100			
O=C1CN(c2c(O)cc3c(c2F)C[C@H](NCC2CC(c4ccccc4)C2)CS3)S(=O)(=O)N1 (stereo partly drawn) [Compound 135, 5-[(3S)-5-fluoro-7-hydroxy-3-{[(3-phenylcyclobutyl)methyl]amino}-3,4-dihydro-2H-1-benzothiopyran-6-yl]-1λ^6,2,5-thiadiazolidine-1,1,3-trione]	< 10	688	10 to 100	1.9	688	>72.7
CCC(C)(C)CCN[C@@H]1CSc2cc(O)c(N3CC(=O)NS3(=O)=O)c(F)c2C1 [Compound 124, 5-{(3S)-3-[(3,3-dimethylpentyl)amino]-5-fluoro-7-hydroxy-3,4-dihydro-2H-1-benzothiopyran-6-yl}-1λ^6,2,5-thiadiazolidine-1,1,3-trione]	< 10	6940	10 to 100			
